From the NIST ThermoML archive (doi:10.1016/j.jct.2016.12.031)
Numbers after ± are expanded uncertainties.

Settings: Crystal; visual observation

| Normal melting temperature [°C] | SMILES |
| --- | --- |
| 160.00 ± 1.1 | CN(C)c1ccc(C(=C2C=CC(=[N+](C)C)C=C2)c2ccccc2)cc1.CN(C)c1ccc(C(=C2C=CC(=[N+](C)C)C=C2)c2ccccc2)cc1.O=C(O)C(=O)O.O=C([O-])C(=O)O.O=C([O-])C(=O)O [Malachite green oxalate] |
| 300.00 ± 1.1 | Cc1cc2nc3cc(C)c(N)cc3[n+](-c3ccccc3)c2cc1N.[Cl-] [Safranine O] |
